Read-outs that look alike come from different tables or passages of the source.
Experiments:
schizophrenic patients = test system: schizophrenic patients
Protocol: The statistics were performed according to the criterion of “last observation carried forward” (LOCF), i.e., the last PANSS scores of the patients who dropped out before the end of the study were carried forward to all subsequent observation days. For the comparison of the main efficacy parameter, the mean change in the PANSS between the two treatment groups, t-tests for independent samples were employed. […] For all other comparisons, two-tailed t-tests were used.

For `Cc1nc2n(c(=O)c1CCN1CCC(c3noc4cc(F)ccc34)CC1)CCCC2O` (stereo not drawn) [9-OH-risperidone], the “differences in the plasma levels between risperidone-celecoxib and risperidone-placebo treatment” value (human, in vivo) was “without statistical significance”.

Molecule risperidone [placebo and risperidone] has a PANSS global score (schizophrenic patients; at the start of the study) of 37.2±7.1, a PANSS negative score (schizophrenic patients; at the start of the study) of 21.1±5.5 and a PANSS total score (schizophrenic patients; at the start of the study) of 75.4±12.9. The PANSS positive score (schizophrenic patients; week 0 (start of the study), mean ± SD, 25 patients per group) was 17.2 ± 4.6, the PANSS positive score (schizophrenic patients; week 0 (start of the study), mean ± SD, 25 patients per group, listed as risperidone-placebo) was 17.2±4.6 and the PANSS positive score (schizophrenic patients; week 1, LOCF) was 16.2 ± 4.6. The PANSS positive score (schizophrenic patients; week 2, LOCF) was 15 ± 4.5, the PANSS positive score (schizophrenic patients; week 3, LOCF) was 14.5 ± 4.6 and the PANSS positive score (schizophrenic patients; week 4, LOCF) was 14.2 ± 4.4. The PANSS positive score (schizophrenic patients; week 5, LOCF) was 13.3 ± 4.4 and the “differences in the plasma levels between risperidone-celecoxib and risperidone-placebo treatment” value (plasma, during the study (FIG. 4)) was “without statistical significance”.

With `Cc1ccc(-c2cc(C(F)(F)F)nn2-c2ccc(S(N)(=O)=O)cc2)cc1` [celecoxib] the “treatment of depressive states” value (schizophrenic patients; add-on celecoxib therapy in schizophrenic patients) was “useful”, the “PANSS items lack of contact, emotional isolation, passive-apathic isolation, social withdrawal, depression, motor retardation” value (schizophrenic patients; detailed item analysis, good celecoxib-responders vs placebo group, add-on to risperidone) was “therapeutic effects” and the “factor analysis: items subsumed under the label agitation” value (schizophrenic patients; response to celecoxib but not to placebo, add-on to risperidone) was “good therapeutic response”.
